# In PubChem BioAssay (NCI):
#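 Abbreviation: GI50, concentration required for 50% inhibition of growth. The concentration for full growth arrest is given as TGI.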
# Experiments:
# Test in all cases: NCI tumour cell line growth inhibition, 384-well format
# A549 NSCLC = system: A549 NSCLC
# BT-549 breast = system: BT-549 breast
# HCT-15 colon = system: HCT-15 colon
# MALME-3M melanoma = system: MALME-3M melanoma
# NCI-H226 lung = system: NCI-H226 lung
# NCI/ADR-RES ovarian = system: NCI/ADR-RES ovarian
# OVCAR-3 ovarian = system: OVCAR-3 ovarian
# OVCAR-8 ovarian = system: OVCAR-8 ovarian
# RPMI-8226 leukemia = system: RPMI-8226 leukemia
# SK-MEL-2 melanoma = system: SK-MEL-2 melanoma
# SK-MEL-28 melanoma = system: SK-MEL-28 melanoma
# SNB-75 CNS = system: SNB-75 CNS
# SR leukemia = system: SR leukemia
compound,measurement,setting,value
C=CCN(/C=C1\C(=O)O[C@H](COC)[C@@]2(C)C1=C(O)C(=O)C1=C2[C@H](OC(C)=O)C[C@]2(C)C(=O)CC[C@@H]12)CC=C,GI50,A549 NSCLC,1.11 µM
same,TGI,A549 NSCLC,27.6 µM
same,GI50,BT-549 breast,0.553 µM
same,TGI,BT-549 breast,9.02 µM
same,GI50,HCT-15 colon,2.98 µM
same,TGI,HCT-15 colon,97.2 µM
same,GI50,MALME-3M melanoma,0.677 µM
same,TGI,MALME-3M melanoma,12.2 µM
same,GI50,NCI-H226 lung,2.76 µM
same,TGI,NCI-H226 lung,56.7 µM
same,GI50,NCI/ADR-RES ovarian,8.83 µM
same,TGI,NCI/ADR-RES ovarian,> 100 µM
same,GI50,OVCAR-3 ovarian,1.16 µM
same,TGI,OVCAR-3 ovarian,12.2 µM
same,GI50,OVCAR-8 ovarian,3.85 µM
same,TGI,OVCAR-8 ovarian,> 100 µM
same,GI50,RPMI-8226 leukemia,0.657 µM
same,TGI,RPMI-8226 leukemia,3.16 µM
same,GI50,SK-MEL-2 melanoma,2.36 µM
same,TGI,SK-MEL-2 melanoma,12.3 µM
same,GI50,SK-MEL-28 melanoma,1.59 µM
same,TGI,SK-MEL-28 melanoma,19.7 µM
same,GI50,SNB-75 CNS,1.57 µM
same,TGI,SNB-75 CNS,10.1 µM
same,GI50,SR leukemia,1.22 µM
same,TGI,SR leukemia,2.51 µM
